From patent US20230265048A1, “NOVEL SPHINGOLIPID CONTAINING BRANCHED-CHAIN FATTY ACID AND USE THEREOF” (SOLUS BIOTECH CO., LTD., priority 2020, published 2023)

Legend:
[1] = test system: skin erythema index on the cheek area; assay: Test Example 6: erythema relieving effect (Mexameter MX 18); format: in vivo, human
Protocol: The branched chain fatty acid ceramide-containing formulation prepared in Example 6 was clinically tested for erythema relieving effect. Specifically, for erythema measurement, a total of 10 test subjects were subjected to application of the branched chain fatty acid ceramide-containing formulation prepared in Example 6 twice a day, and measured before use (Week 0), 1 week after use, and 2 weeks after use by an instrument. The skin erythema index on the cheek area was measured using Mexameter MX 18 of Courage+Khazaka (C-K) (Cologne, Germany).

[2] = Test Example 3: Solubility in oils and polyols; format: physicochemical; parameters: key: −: Non-soluble; +: Soluble (recrystallization occurred after cooling to room temperature); ++: Very soluble (recrystallization did not occur after cooling to room temperature); settings: heated at 80° C., cooled to room temperature
Protocol: The ceramides of Example 4, Comparative Example 1, and Comparative Example 2 were mixed with oils and polyols at 0.1 to 1.0 wt % relative to the solvent substance, and then heated with stirring at 80° C. and then cooled to room temperature.

Question: Which “Erythema (skin erythema index)” value ([1]; Week 0 (before use)) does the source give for `CCCCCCCC/C=C\CCCCCCCC(=O)N[C@@H](CO)[C@H](O)/C=C/CCCCCCCCCCCCC` [Comparative Example 2, Oleoyl ceramide, reference compound] here?
Answer: 261.53 ± 10.82

Question: And the “Erythema (skin erythema index)” value ([1]; Week 1, applied twice a day)?
Answer: 236.2 ± 11.578

Question: And the “Erythema (skin erythema index)” value ([1]; Week 2, applied twice a day)?
Answer: 213.47 ± 11.518

Question: What about the Solubility ([2]; Butylene glycol, 0.1%) of the same compound?
Answer: +

Question: And the Solubility ([2]; Butylene glycol, 0.5%)?
Answer: +

Question: What about the Solubility ([2]; Caprylic/capric triglyceride, 0.1%) of the same compound?
Answer: −

Question: What about the Solubility ([2]; Caprylic/capric triglyceride, 0.5%) of the same compound?
Answer: −

Question: What about the Solubility ([2]; Cetyl ethyl hexanoate, 0.1%) of the same compound?
Answer: −

Question: And the Solubility ([2]; Cetyl ethyl hexanoate, 0.5%)?
Answer: −

Question: What about the Solubility ([2]; Dipropylene glycol, 0.1%) of the same compound?
Answer: +

Question: What about the Solubility ([2]; Dipropylene glycol, 0.5%) of the same compound?
Answer: −

Question: And the Solubility ([2]; Glycerin, 0.1%)?
Answer: −

Question: And the Solubility ([2]; Glycerin, 0.5%)?
Answer: −

Question: What about the Solubility ([2]; Macadamia ternifolisa seed oil, 0.1%) of the same compound?
Answer: −

Question: And the Solubility ([2]; Macadamia ternifolisa seed oil, 0.5%)?
Answer: −

Question: And the Solubility ([2]; Propylene glycol, 0.1%)?
Answer: −

Question: What about the Solubility ([2]; Propylene glycol, 0.5%) of the same compound?
Answer: −
